Test results from paper PMC7690921, “Synthesis and Biological Evaluation of Analogues of Butyrolactone I as PTP1B Inhibitors” (Marine Drugs, 2020).

What was measured:
PTP1B = biological target: T1, PTP1B (Homo sapiens, UniProt P18031); assay: PTP1B inhibitory assay (pNPP substrate); assay type: biochemical; conditions: for IC50: pNPP 1 mM, 37 °C, Mean ± SD (n = 4), read-out: IC50 against PTP1B
T1 sequence (P18031 1-435): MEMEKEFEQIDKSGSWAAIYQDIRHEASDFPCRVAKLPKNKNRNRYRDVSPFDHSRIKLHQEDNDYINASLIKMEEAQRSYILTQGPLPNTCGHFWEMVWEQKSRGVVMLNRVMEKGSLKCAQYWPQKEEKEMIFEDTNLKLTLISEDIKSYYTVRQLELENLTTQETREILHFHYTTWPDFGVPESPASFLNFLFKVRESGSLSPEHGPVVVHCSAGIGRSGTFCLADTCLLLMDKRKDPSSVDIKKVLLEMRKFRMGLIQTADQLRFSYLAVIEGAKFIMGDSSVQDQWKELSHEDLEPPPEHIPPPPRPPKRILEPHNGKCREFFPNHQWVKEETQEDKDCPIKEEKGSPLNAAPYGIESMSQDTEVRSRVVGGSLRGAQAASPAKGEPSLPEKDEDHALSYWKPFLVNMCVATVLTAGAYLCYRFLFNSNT
Protocol: The tested compounds at designated concentrations were solubilized in DMSO, and 2 μL samples was added to 96-well clear polystyrene plate. […] Then, 78 μL of an assay buffer (25 mM Hepes, 150 mM sodium chloride (NaCl), 0.1% bovine serum albumin (BSA), 3 mM dithiothreitol, 1 mM ethylenediaminetetraacetic acid) and 10 μL of the PTP1B (10 μg/mL) was added and incubated for 10 min at 37 °C. The screening was initiated by adding 10 μL p-nitrophenyl phosphate (pNPP), and the catalysis of pNPP (1 mM) was continuously monitored on SpectraMax 340 microplate reader (Molecular Devices, Sunnyvale, CA, USA) at 405 nm for 20 min at 37 °C. The slope of the linear portion of the kinetic curve generated from each well was used to determine the activity of PTP1B. The inhibition effect of the compound was represented by the percentage of the slope of the linear portion of its kinetic curve relative to that of the negative control (DMSO). The IC50 was calculated with Prism 8 software (Graphpad, San Diego, CA, USA) from the non-linear curve fitting of the percentage of inhibition (%inhibition) versus the inhibitor concentration [I] by using the following equation: %Inhibition = 100/(1 + [IC50/[I]] ^k), where k is the Hill coefficient.

IR HepG2 cells = assay: Glucose consumed in insulin resistance model of HepG2 cells; assay type: cell-based; conditions: high glucose and high insulin stimulated HepG2; 24 h treatment
Protocol: HepG2 cells (Cell Bank of Chinese Academy of Sciences, Shanghai, China) were seeded in 96-well plates in normal Dulbecco’s Modified Eagle’ Medium (DMEM, 5.6 mM glucose) supplemented with 10% fetal bovine serum (FBS). The density of the cells in each plate was 1 × 10^4 cells/mL. The original medium was removed when the cells became adherent. For the control group, the medium was replaced with […]. The model of insulin resistance was established by stimulation with high glucose DMEM (30 mM glucose) with 10^−7 mol/L insulin for 48 h. Then, the cells were treated with drug-free or drug-containing DMEM (5.6 mM glucose) containing 0.2% BSA and […] 1 × 10^−9 mol/L insulin for 24 h. Glucose consumption was detected with the glucose oxidase method using a glucose assay kit (Cat#BC2500, Solarbio, Beijing, China).

RIN-m5f cell line = assay: Cell proliferation assay (CCK-8), RIN-m5f; assay type: cell-based; conditions: CCK-8, 48 h
Protocol: The cytotoxic effect of the synthesized butenolides on RIN-m5f (CRL-11605, American Type Culture Collection, Manassas, VA, USA) and HepG2 cells was determined with a Cell Counting Kit 8 (CCK-8) kit (Dojindo, Tokyo, Japan). Cells were seeded into 96-well plates in DMEM with 10% FBS in a volume of 100 µL per well and cultured overnight at 37 °C. The density of the cells in each plate was 1 × 10^4 cells/mL. According to the manufacturer’s protocol, after treatment with DMSO or varying concentrations of BLs for 48 h, 10 µL of CCK-8 solution was added to each well and cells were incubated for 2 h at 37 °C. Measure the absorbance at 450 nm of each well on a SpectraMax 340 microplate reader.

[1] = set-up: method as in doi:10.1007/s00044-013-0659-4; conditions: read-out: IC50 antioxidant activities; cited from earlier work
α-glucosidase = biological target: α-glucosidase; set-up: method as in earlier work; conditions: cited from earlier work

Compound | IC50 (PTP1B) | hypoglycemic effect (glucose consumed / glucose uptake) in IR HepG2 cells (IR HepG2 cells) | cytotoxicity to RIN-m5f cell line (proliferation) (RIN-m5f cell line) | PTP1B inhibitory activity (in words) (PTP1B) | IC50 [1] | IC50 (α-glucosidase)
CC(C)=CCc1cc(C2OC(=O)C(O)=C2c2ccc(O)cc2)ccc1O (stereo not drawn) [BL-2] | 133 µM | – | – | – | – | –
CC(C)=CCc1cc(C2OC(=O)C(O)=C2c2ccc(O)cc2)ccc1OCc1ccccc1 (stereo not drawn) [BL-3] | – | significant hypoglycemic effect | did not affect the proliferation | strong PTP1B inhibitory activity | – | –
COC(=O)C1(c2ccc(OCc3ccccc3)cc2)OC(=O)C(O)=C1c1ccc(O)cc1 (stereo not drawn) [BL-4] | 28.5 µM | – | – | strong PTP1B inhibitory activity | – | –
O=C1OC(Cc2ccc(OCc3ccccc3)cc2)C(c2ccc(O)cc2)=C1O (stereo not drawn) [BL-5] | – | significant hypoglycemic effect | did not affect the proliferation | strong PTP1B inhibitory activity | – | –
CC(C)=CCc1cc(CC2OC(=O)C(O)=C2c2ccc(O)cc2)ccc1OCc1ccccc1 (stereo not drawn) [BL-6] | 17.2 µM | did not improve the glucose uptake | significant cytotoxicity | strong PTP1B inhibitory activity | – | –
COC(=O)[C@]1(Cc2ccc(O)c(CC=C(C)C)c2)OC(=O)C(O)=C1c1ccc(O)cc1 [Butyrolactone I] | – | – | – | – | 51.4 µM | 52.2 µM
